Source: patent US5972998A, “Triptolide derivatives useful in the treatment of autoimmune diseases” (priority 1998, dated 1999)
In brackets after ≈: the same amount, converted by molar mass. Where two headings read alike, the source gives them in different places.

Tests used:
[1] = administered in conjunction with another immunosuppressive agent; WO 94/26265; cited from earlier work
[2] = format: in vivo, rat (male Wistar-Lewis); settings: weight gain between day 1 and day 21
Protocol: (§1) Following generally the procedure of Pearson and Wood, Arth. Rheum., 2, 44 (1959), the anti-inflammatory activity of the following compounds was determined in a rat model of adjuvant-induced arthritis. Male Wistar-Lewisrats (Mollegaard, Breeding Centre Ltd, BIBY, DK 4623 LI, SKENSVED, P.P. Box 28, DK) with a body weight between 160 g and 200 g are used. Freund's adjuvant (0.1 mL, 6 mg Mycobacterium smegmatis suspension per mL in heavy white paraffin oil, Merck/Darmstadt) was injected into the base of the tail. Between day 10 and day 14 of the test, immunopathological processes lead to chronic inflammation, especially in the form of arthritic and periarthritic symptoms in all parts of the body. The animals received standardized food Altromin-R (Altrogge, Lage) and had free access to water. The compounds were administered i.p. (suspension in a carboxymethyl cellulose solution in an injection volume of 0.5 mL/100 g body weight) on 12 consecutive days, starting with the day of the adjuvant injection. On day 1 and day 18 of the study, the volume to of both hind paws and the body weight were recorded, and in addition on day 18 the arthritis index. Cyclosporin A and Prednisolone were used as standard compounds. In addition, table IV presents the percent change in body weight (weight gain) between day 1 and day 21 of the above test.

[3] = tested on: adjuvant-induced arthritis; assay: Anti-inflammatory activity in the rat model of adjuvant-induced arthritis; format: in vivo, rat (male Wistar-Lewis); settings: 12 consecutive days, day 18
Protocol: Anti-inflammatory Activity in the Rat Model of Adjuvant-induced Arthritis
as §1

[4] = tested on: IL-2; assay: Interleukin-2 assay (IL-2 production, ELISA, PHA/TPA-stimulated cells); format: cell-based; settings: Jurkat E6-1 cells or human blood lymphocytes, PHA 10 μg/mL + TPA 10^-8 M, 16-24 hours
Protocol: (§2) Jurkat E6-1 cell line (ATCC), a human leukemic T cell line or lymphocytes prepared from fresh human blood, are grown in complete culture medium consisting of RPMI-1640 (Mediatech) supplemented with 10% v/v fetal bovine serum (HyClone, Logen, Vt.), penicillin (100 units/mL), streptomycin ([…]), and 2 mM L-glutamine (GIBCO, Grand Island, N.Y.). The cells are grown to a concentration of between 1.2 to 1.8×10^6 cells/mL before use. The cells are then centrifuged at low speed and resuspended to a concentration of 1.25×10^6 cells/mL in fresh medium.
(§3) The compounds to be tested are dissolved in DMSO, and water is added to make a 50% DMSO/water solution. The compounds are then diluted in sterile water such that the DMSO concentrations are less then 0.05%. The cells at a concentration of 1.25×10^6 cells/mL are stimulated with phytohemagglutinin 10 μg/mL (PHA) and 10^-8 M phorbol ester (12-O-tetradecanoylphorbol 13-acetate: TPA), (Sigma, St. Louis, Mo.). The compounds are then added and the cells are plated in flat-bottom tissue culture plates (Falcon, Lincoln Park, N.J.), with 250,000 cells/well. Plates are then incubated at 37° C. under an atmosphere of 5% CO2.
(§4) After incubation (16-24 hours), the cells are assayed for IL-2 production and cell viability (MTT). IL-2 production is assayed utilizing a solid phase ELISA immunoassay, sold in kit form by R&D Systems, Inc., Minneapolis, Minn.

[5] = tested on: Jurkat E6-1 cell line (ATCC), a human leukemic T cell line or lymphocytes prepared from fresh human blood; assay: Cell viability (mitochondrial enzyme assay, MTT); format: cell-based; settings: after 16-24 hours incubation
Protocol: as §2, §3, §4
Cell viability is measured by the use of a mitochondrial enzyme assay. After removal of the supernatant for the IL-2 assay, Cell Titer 96 (a commercial solution of MTT available from Promega, Madison, Wis.) is added to the plates and incubated for 4 hours at 37° C. A solubilization solution is then added and incubated overnight. The plates are then read on an ELISA plate reader at a wavelength of 570 nm. Table II presents the results for the lnterleukin-2 assay, the cell viability assay and the ratio of cell viability/IL-2 inhibition.

[6] = tested on: skin allograft rejection; settings: Yang, et al., 1992 and 1994; cited from earlier work
[7] = tested on: lymphocyte; settings: Yang, et al., 1992 and 1994; cited from earlier work

## C[C@@H](CO)[C@]12O[C@H]1[C@@H]1O[C@]13[C@]1(O[C@H]1C[C@H]1C4=C(CC[C@@]13C)C(=O)OC4)[C@@H]2O [16-hydroxytriptolide, 16-Hydroxytriptolide]
[1]
  immunosuppressive activity relative to the sum of the effects of either agent alone: increase in immunosuppressive activity relative to the sum of the effects

## CC(C)[C@]1(O)C=C[C@@]2(O)[C@@]3(C)CCC4=C(COC4=O)C3CC[C@@]2(O)[C@@H]1O (stereo partly drawn) [Example 2, [5aR-(5aα,6α,7β,9aα,9bα)]-3b,4,5,5a,6,7,9a,9b,10,11-decahydro-5a,6,7,9a-tetrahydroxy-9b-methyl-7-(1-methylethyl)-phenanthro[1,2-c]furan-1(3H)-one]
[2]; 2 mg/kg/day i.p.
  % Change in Body Weight: 18.3%
[2]; 4 mg/kg/day i.p.
  % Change in Body Weight: 24.1%
[3]; 2 mg/kg/day i.p.
  % Inhibition: 83%
[3]; 4 mg/kg/day i.p.
  % Inhibition: 72%
[4]
  IC50 /IL-2: 14 ng/mL
[5]
  IC50 /MTT: 90 ng/mL (≈ 0.247 µM)

## CC(C)[C@]12O[C@H]1[C@@H]1O[C@]13[C@]1(O[C@H]1C[C@H]1C4=C(CC[C@@]13C)C(=O)OC4)[C@@H]2O [Triptolide, triptolide]
[6]
  suppress skin allograft rejection: suppress lymphocyte proliferation and skin allograft rejection
[7]
  suppress lymphocyte proliferation: suppress lymphocyte proliferation
[5]
  IC50 /MTT: 5 ng/mL (≈ 0.0139 µM)

## Cyclosporin A [reference compound]
[2]; 10 mg/kg/day i.p.
  % Change in Body Weight: 27.2%
[3]; 10 mg/kg/day i.p.
  % Inhibition: 100%

## [5R-(5α,5aβ,6β,7α,9aβ,9bβ)]-3b,4,5,5a,6,7,9a,10,11-decahydro-5a,6,9a-trihydroxy-9b-methyl-7-(1-methylethyl)-5,7-epoxyphenanthro[1,2-c]furan-1(3H)-one [Example 3]
[4]
  IC50 /IL-2: 500 ng/mL
[5]
  IC50 /MTT: > 1,000 ng/mL

## [5aS-(5aα,5bα,8β,9α,9aR*,10aβ)]-4,5a,5b,8,9,10a,11,11a-octahydro-5b,8,9-trihydroxy-5a-methyl-8-(1-methylethyl)-1H-oxireno[8a,9]phenanthro[1,2-c]furan-3(5)-one [Example 1]
[4]
  IC50 /IL-2: 1,000 ng/mL
[5]
  IC50 /MTT: > 1,000 ng/mL
